Reference: patent publication US20260294871A1, “PHARMACEUTICAL COMBINATIONS AND COMPOSITIONS THEREOF COMPRISING ANTIBACTERIAL AGENTS” (priority 2023, published 2026)
Read-outs that look alike come from different tables or passages of the source.

How the values were obtained:
[1] = tested on: Stenotrophomonas maltophilia; test: MIC by broth microdilution against Stenotrophomonas maltophilia; type: cell-based; conditions: highly resistant strains
Method: (§1) In a typical study MIC tests were performed by broth microdilution in line with CLSI susceptibility testing standards. Bacterial inocula were prepared at ca. 1×10^6 CFU/mL by diluting 100-fold a 0.5 McFarland suspension in CA-MHB with TES. Microtiter plate wells containing 50 μL of antibacterial solutions at 2×the final concentrations were diluted 2-fold with 50 μL of inoculum to give a final inoculum of ca. 5×10^5 CFU/mL and desired test concentrations of antibacterial agents. Test microtiter plates were incubated according to CLSI guidelines and read visually. MIC values corresponded to the first well with no visible growth.
The results of antibacterial activity of amikacin, Ceftazidime-avibactam, Ceftriaxone with sulbactam and EDTA, Meropenem and Meropenem with avibactum and EDTA against highly resistant strains of Stenotrophomonas maltophilia are given in Table 8.

A. baumannii = test: Frequency of Resistance (FOR) Study, A. baumannii; note: key: TMTC: To more to count; type: cell-based; conditions: strain 8 - A. baumannii
Method: Objective: The in-vitro study was conducted to determine the frequency of resistance in 8 characterized isolates.
• Isolates: 8 isolates-E. coli (3), K. pneumoniae (2), A. baumannii (1) and P. aeruginosa (2) • Compound tested: Meropenem; Meropenem Avibactam (4); Meropenem EDTA (10 mM); Meropenem Avibactam (4) EDTA (10 mM) • Antibiotic Concentration used: […]

Acinetobacter baumannii = test: MIC by broth microdilution against Acinetobacter baumannii; type: cell-based
Method: as §1
The results of antibacterial activity of amikacin, Ceftazidime-avibactam, Ceftriaxone with sulbactam and EDTA, Meropenem and Meropenem with avibactum and EDTA against highly resistant strains of Acinetobacter baumannii are given in Table 7.

[2] = tested on: Enterobacterales isolates from India; test: MIC by broth microdilution against Enterobacterales; type: cell-based, Enterobacteriaceae
Method: as §1
The results of antibacterial activity of amikacin, Ceftazidime-avibactam, Ceftriaxone with sulbactam and EDTA, Meropenem and Meropenem with avibactam and EDTA against highly resistant strains of Enterobacteriaceae are given in Table 2.

K. pneumoniae = test: MIC by broth microdilution against Klebsiella; type: cell-based, Klebsiella pneumoniae
Method: as §1
The results of antibacterial activity of amikacin, Ceftazidime-avibactam, Ceftriaxone with sulbactam and EDTA, Meropenem and Meropenem with avibactam and EDTA against highly resistant strains of Klebsiella (93. 3% Mem NS) are given in Table 4.

C[C@@H](O)[C@H]1C(=O)N2C(C(=O)O)=C(S[C@@H]3CN[C@H](C(=O)N(C)C)C3)[C@H](C)[C@H]12 [Meropenem, (4R,5S,6S)-3-(((3S,5S)-5-(dimethylcarbamoyl)pyrrolidin-3-yl)thio)-6-((R)-1-hydroxyethyl)-4-methyl-7-oxo-1-azabicyclo[3.2.0]hept-2-ene-2-carboxylic acid]
MIC50 ([1]; Stenotrophomonas maltophilia, read-out: MIC50): > 32 µg/mL | MIC90 ([1]; Stenotrophomonas maltophilia, read-out: MIC90): > 32 µg/mL | MIC50 [1]: >32 µg/mL | MIC90 [1]: >32 µg/mL | count, 24 H of Incubation (A. baumannii; ATB concentration 4x): TMTC | count, 24 H of Incubation (A. baumannii; ATB concentration 8x): TMTC | count, 24 H of Incubation (A. baumannii; ATB concentration 16x): TMTC | MIC90 (Acinetobacter baumannii; Acinetobacter baumannii): > 32 µg/mL | MIC50 (Acinetobacter baumannii; Acinetobacter baumannii, highly resistant strains): > 32 µg/mL | MIC90 (Acinetobacter baumannii; MEM-NS isolates (n=163)): > 32 µg/mL | MIC90 (Acinetobacter baumannii; highly resistant strains): >32 µg/mL | MEM-NS isolates (Acinetobacter baumannii; n=163): 98.2% | MIC50 [2]: > 32 µg/mL | MIC90 [2]: > 32 µg/mL | isolates resistant to meropenem (MEM NS) ([2]; 250 out of 301): 82.7% | MIC50 ([2]; MEM-NS isolates (n=250)): > 32 µg/mL | MIC90 ([2]; MEM-NS isolates (n=250)): > 32 µg/mL | MIC50 ([2]; n=301): >32 µg/mL | MIC90 ([2]; n=301): >32 µg/mL | MIC50 (K. pneumoniae; Klebsiella pneumoniae, MEM-NS isolates (n=112), read-out: MIC50): > 32 µg/mL | MIC90 (K. pneumoniae; Klebsiella pneumoniae, highly resistant strains, read-out: MIC90): > 32 µg/mL | MIC90 (K. pneumoniae; MEM-NS isolates (n=112)): > 32 µg/mL | MIC50 (K. pneumoniae; highly resistant strains): >32 µg/mL | MIC90 (K. pneumoniae; highly resistant strains): >32 µg/mL | MEM-NS isolates (K. pneumoniae; n=112, listed as MEM): 93.3%
